Test system: human dermal fibroblasts
Test: Fibroblasts proliferation after 10 days of culture (cells trypsinized and counted with a Coulter counter)
Type: cell-based
Conditions: 2% FCS
Procedure: Fibroblasts were seeded in 24 multiwell plates at 25,000 cells per well in 1 ml of DMEM supplemented with fetal calf serum (FCS) and antibiotics. Cultures were incubated 24 hours at 37° C. to allow cell attachment and spreading. Supernatants were then eliminated and replaced with fresh medium supplemented with 2% of FCS and containing the tested product at different concentrations. After 10 days of culture, cells were trypsinized and counted with a Coulter counter.

Compound | % effect vs control (DMAE 10^-4 M alone) [%] | % effect vs control (DMAE 10^-5 M alone) [%] | % effect vs control (metal salt alone 5 ng/ml) [%] | Mean of cell/ml (metal salt alone 5 ng/ml) [cell/ml] | % effect vs control (metal salt alone 50 ng/ml) [%] | Mean of cell/ml (metal salt alone 50 ng/ml) [cell/ml] | % effect vs control (metal salt alone 500 ng/ml) [%] | Mean of cell/ml (metal salt alone 500 ng/ml) [cell/ml]
CN(C)CCO [DMAE, dimethylaminoethanol] | 31 | 14 |  |  |  |  |  | 
N[C@@H](CC(=O)[O-])C(=O)[O-].[Mg+2] [Mg aspartate, magnesium aspartate] |  |  | 2 | 78073 ± 4231 | 3 | 79400 ± 1674 | 21 | 92753 ± 2771
zinc gluconate [Zn gluconate] |  |  | 0 |  | 3 |  | 11 | 
